Test results reported in patent publication US20220281848A1, “PYRAZOLE-SUBSTITUTED PYRROLIDINONES AS HERBICIDES” (FMC Corporation, priority 2019, published 2022).

Tested on: plants
Experiment: Test D pre-emergence, other plants of Tables D1 and D3
Assay type: in vivo
Settings: preemergent, 20 DAA
Protocol: A formulation containing 50 g/L of the test chemical was prepared by dissolving the active ingredient in a mixture of organic solvents and emulsifier, details of which are provided in the table. This formulation was then mixed with a small, variable amount of acetone to aid dissolution, before addition of a 0.2% v/v aqueous solution of an adjuvant, as the aqueous diluent, to form an aqueous spray solution which contains a predetermined concentration of the active ingredient.
This aqueous spray solution was then sprayed onto plants including maize and wheat that had been seed treated with a herbicide safener, after one day's cultivation (for pre-emergence) or after about 12 days' cultivation (for post-emergence). The plants were grown from seeds sown in standard soil, placed in a glasshouse under controlled conditions (at 24/18° C. or 20/16° C., day/night; 16 h light; 65% humidity). After spray application the plants were then grown in a glasshouse under the same conditions and watered twice daily. After 15 d for post-emergence and 20 DAA for pre-emergence the test was evaluated (100=total damage to plant; 0=no damage to plant).

COc1c(F)cccc1NC(=O)C1C(=O)N(C)CC1c1cc(C(F)(F)F)n(C)n1 (racemic) [Compound 18]
damage to plant (100=total damage to plant; 0=no damage to plant), ABUTH (rate 15): 0 | damage to plant (100=total damage to plant; 0=no damage to plant), ABUTH (rate 30): 0 | damage to plant (100=total damage to plant; 0=no damage to plant), ABUTH (rate 60): 0 | damage to plant (100=total damage to plant; 0=no damage to plant), ABUTH (rate 130): 0 | damage to plant (100=total damage to plant; 0=no damage to plant), ABUTH (rate 250): 10 | damage to plant (100=total damage to plant; 0=no damage to plant), ABUTH (rate 500): 30 | damage to plant (100=total damage to plant; 0=no damage to plant), AMARE (rate 15): 0 | damage to plant (100=total damage to plant; 0=no damage to plant), AMARE (rate 30): 0 | damage to plant (100=total damage to plant; 0=no damage to plant), AMARE (rate 60): 0 | damage to plant (100=total damage to plant; 0=no damage to plant), AMARE (rate 130): 0 | damage to plant (100=total damage to plant; 0=no damage to plant), AMARE (rate 250): 0 | damage to plant (100=total damage to plant; 0=no damage to plant), AMARE (rate 500): 0 | damage to plant (100=total damage to plant; 0=no damage to plant), BIDPI (rate 15): 0 | damage to plant (100=total damage to plant; 0=no damage to plant), BIDPI (rate 30): 0 | damage to plant (100=total damage to plant; 0=no damage to plant), BIDPI (rate 60): 0 | damage to plant (100=total damage to plant; 0=no damage to plant), BIDPI (rate 130): 0 | damage to plant (100=total damage to plant; 0=no damage to plant), BIDPI (rate 250): 0 | damage to plant (100=total damage to plant; 0=no damage to plant), BIDPI (rate 500): 0 | damage to plant (100=total damage to plant; 0=no damage to plant), BRAPL (rate 15): 10 | damage to plant (100=total damage to plant; 0=no damage to plant), BRAPL (rate 30): 60 | damage to plant (100=total damage to plant; 0=no damage to plant), BRAPL (rate 60): 70 | damage to plant (100=total damage to plant; 0=no damage to plant), BRAPL (rate 130): 80 | damage to plant (100=total damage to plant; 0=no damage to plant), BRAPL (rate 250): 80 | damage to plant (100=total damage to plant; 0=no damage to plant), BRAPL (rate 500): 90 | damage to plant (100=total damage to plant; 0=no damage to plant), CYPES (rate 15): 0 | damage to plant (100=total damage to plant; 0=no damage to plant), CYPES (rate 30): 0 | damage to plant (100=total damage to plant; 0=no damage to plant), CYPES (rate 60): 0 | damage to plant (100=total damage to plant; 0=no damage to plant), CYPES (rate 130): 0 | damage to plant (100=total damage to plant; 0=no damage to plant), CYPES (rate 250): 0 | damage to plant (100=total damage to plant; 0=no damage to plant), CYPES (rate 500): 0 | damage to plant (100=total damage to plant; 0=no damage to plant), DIGSA (rate 15): 0 | damage to plant (100=total damage to plant; 0=no damage to plant), DIGSA (rate 30): 80 | damage to plant (100=total damage to plant; 0=no damage to plant), DIGSA (rate 60): 90 | damage to plant (100=total damage to plant; 0=no damage to plant), DIGSA (rate 130): 90 | damage to plant (100=total damage to plant; 0=no damage to plant), DIGSA (rate 250): 90 | damage to plant (100=total damage to plant; 0=no damage to plant), DIGSA (rate 500): 100 | damage to plant (100=total damage to plant; 0=no damage to plant), ECHCG (rate 15): 0 | damage to plant (100=total damage to plant; 0=no damage to plant), ECHCG (rate 30): 30 | damage to plant (100=total damage to plant; 0=no damage to plant), ECHCG (rate 60): 70 | damage to plant (100=total damage to plant; 0=no damage to plant), ECHCG (rate 130): 90 | damage to plant (100=total damage to plant; 0=no damage to plant), ECHCG (rate 250): 90 | damage to plant (100=total damage to plant; 0=no damage to plant), ECHCG (rate 500): 90 | damage to plant (100=total damage to plant; 0=no damage to plant), ELEIN (rate 15): 0 | damage to plant (100=total damage to plant; 0=no damage to plant), ELEIN (rate 30): 0 | damage to plant (100=total damage to plant; 0=no damage to plant), ELEIN (rate 60): 0 | damage to plant (100=total damage to plant; 0=no damage to plant), ELEIN (rate 130): 0 | damage to plant (100=total damage to plant; 0=no damage to plant), ELEIN (rate 250): 0 | damage to plant (100=total damage to plant; 0=no damage to plant), ELEIN (rate 500): 0 | damage to plant (100=total damage to plant; 0=no damage to plant), EPHHL (rate 15): 0 | damage to plant (100=total damage to plant; 0=no damage to plant), EPHHL (rate 30): 0 | damage to plant (100=total damage to plant; 0=no damage to plant), EPHHL (rate 60): 0 | damage to plant (100=total damage to plant; 0=no damage to plant), EPHHL (rate 130): 0 | damage to plant (100=total damage to plant; 0=no damage to plant), EPHHL (rate 250): 10 | damage to plant (100=total damage to plant; 0=no damage to plant), EPHHL (rate 500): 20 | damage to plant (100=total damage to plant; 0=no damage to plant), GLXMA (rate 15): 0 | damage to plant (100=total damage to plant; 0=no damage to plant), GLXMA (rate 30): 0 | damage to plant (100=total damage to plant; 0=no damage to plant), GLXMA (rate 60): 0 | damage to plant (100=total damage to plant; 0=no damage to plant), GLXMA (rate 130): 0 | damage to plant (100=total damage to plant; 0=no damage to plant), GLXMA (rate 250): 0 | damage to plant (100=total damage to plant; 0=no damage to plant), GLXMA (rate 500): 0 | damage to plant (100=total damage to plant; 0=no damage to plant), IPOHE (rate 15): 0 | damage to plant (100=total damage to plant; 0=no damage to plant), IPOHE (rate 30): 0 | damage to plant (100=total damage to plant; 0=no damage to plant), IPOHE (rate 60): 0 | damage to plant (100=total damage to plant; 0=no damage to plant), IPOHE (rate 130): 0 | damage to plant (100=total damage to plant; 0=no damage to plant), IPOHE (rate 250): 0 | damage to plant (100=total damage to plant; 0=no damage to plant), IPOHE (rate 500): 0 | damage to plant (100=total damage to plant; 0=no damage to plant), ORYSA (rate 15): 0 | damage to plant (100=total damage to plant; 0=no damage to plant), ORYSA (rate 30): 0 | damage to plant (100=total damage to plant; 0=no damage to plant), ORYSA (rate 60): 0 | damage to plant (100=total damage to plant; 0=no damage to plant), ORYSA (rate 130): 0 | damage to plant (100=total damage to plant; 0=no damage to plant), ORYSA (rate 250): 0 | damage to plant (100=total damage to plant; 0=no damage to plant), ORYSA (rate 500): 0 | damage to plant (100=total damage to plant; 0=no damage to plant), PANMI (rate 15): 0 | damage to plant (100=total damage to plant; 0=no damage to plant), PANMI (rate 30): 0 | damage to plant (100=total damage to plant; 0=no damage to plant), PANMI (rate 60): 0 | damage to plant (100=total damage to plant; 0=no damage to plant), PANMI (rate 130): 0 | damage to plant (100=total damage to plant; 0=no damage to plant), PANMI (rate 250): 0 | damage to plant (100=total damage to plant; 0=no damage to plant), PANMI (rate 500): 0 | damage to plant (100=total damage to plant; 0=no damage to plant), SETFA (rate 15): 0 | damage to plant (100=total damage to plant; 0=no damage to plant), SETFA (rate 30): 0 | damage to plant (100=total damage to plant; 0=no damage to plant), SETFA (rate 60): 80 | damage to plant (100=total damage to plant; 0=no damage to plant), SETFA (rate 130): 90 | damage to plant (100=total damage to plant; 0=no damage to plant), SETFA (rate 250): 90 | damage to plant (100=total damage to plant; 0=no damage to plant), SETFA (rate 500): 90 | damage to plant (100=total damage to plant; 0=no damage to plant), SORVU (rate 15): 0 | damage to plant (100=total damage to plant; 0=no damage to plant), SORVU (rate 30): 0 | damage to plant (100=total damage to plant; 0=no damage to plant), SORVU (rate 60): 0 | damage to plant (100=total damage to plant; 0=no damage to plant), SORVU (rate 130): 0 | damage to plant (100=total damage to plant; 0=no damage to plant), SORVU (rate 250): 0 | damage to plant (100=total damage to plant; 0=no damage to plant), SORVU (rate 500): 10
